In paper PMC11357992, “Non-invasive mapping of systemic neutrophil dynamics upon cardiovascular injury” (Nature Cardiovascular Research, 2023):
Where “and” joins values, the source holds several entries; their conditions need not be identical. Equal values may be shown once. Where no end group is shown, it is not given here. Side-chain parts run from the residue outwards. rhodamine‑labelled PEGylated perfluoro‑15‑crown‑5 ether nanoemulsion = not defined here; carboxyfluorescein = N-terminal fluorescence label (CF)

How the values were obtained:
bone marrow neutrophils = experiment: In situ labeling of bone marrow neutrophils and tracking after MI, 1H/19F MRI of bone marrow; assay type: in vivo, mouse
Experimental: For labeling of neutrophils before MI, mice were anesthetized (1.5% isoflurane) and 1 mmol per kg BW PFCs were injected intravenously via the tail vein on 3 consecutive days. Induction of MI was essentially carried out as previously described. For inhibiting the egress of neutrophils from the bone marrow in a subset of experiments, a cocktail of neutralizing antibodies was injected i.p. 1 h before and 4 h after MI (CXCL1, CXCL2, G-CSF, GM-CSF, 50 µg each, Thermo Fisher). To generate neutropenic mice, 48 and 24 h before MI, 500 µg of the Ly6G-depletion antibody (BioXcell, clone 1A8) was injected i.p. in independent experiments.
All experiments were performed with a vertical 9.4 T Bruker AVANCE^III Wide Bore NMR spectrometer (Bruker) driven by ParaVision 5.1 and operating at frequencies of 400.21 MHz for ^1H measurements and 376.54 MHz for ^19F measurements using a Bruker microimaging unit, Micro2.5, with actively shielded gradient sets (1.5 T m^−1). Data were acquired using a 25-mm quadrature ^19F resonator with one channel tunable to both ^1H and ^19F. Mice were anesthetized with 1.5% isoflurane and kept at 37 °C. After acquisition of morphological ^1H images, the resonator was tuned to ^19F, and anatomically matching ^19F images were recorded essentially as described previously. […]
Slice packages were placed in sagittal orientation to cover the complete bone marrow in the tibia and femur in both legs using the following scan details: ^1H RARE, TR = 2,000 ms, FOV = 4.00 × 2.56 cm^2, matrix = 256 × 256, ST = 1 mm, tAcq = 1 min; ^19F RARE, TR = 2,500 ms, FOV = 4.00 × 2.56 cm^2, matrix = 64 × 64, ST = 3 mm, tAcq = 10 min.
Extended Data Fig. 4 Experimental timeline and whole body ^1H/^19F MRI of a ^mNPPFC-treated mouse. a, To label neutrophils within the bone marrow, ^mNPPFCs (or ^ConPFCs as control) were intravenously injected on three consecutive days (day −3, −2, −1) followed by ^1H/^19F MRI of the bone marrow on day 0. Subsequently, MI was induced and bone marrow and the infarcted heart were analyzed by combined ^1H/^19F MRI 24 h later. b, In separate experiments, neutralizing antibodies against CXCL1, CXCL2, G-CSF and GM-CSF were injected intraperitoneally (i. p.; 50 µg) 1 h before and 4 h post induction of MI to inhibit the MI-stimulated egress of neutrophils from the bone marrow and their infiltration into the heart. c, To determine the whole body biodistribution of ^mNPPFCs, ^mNPPFCs were intravenously injected daily over three consecutive days. Afterwards, whole body ^1H/^19F MRI measurements were performed to visualize the labelled neutrophils in the different bone marrow compartments. The bright ^19F spot in the middle represents the liver – an organ known to be as major site of (PFC) nanoparticle deposition.
Extended Data Fig. 5 ^mNPPFC incorporation into the bone marrow and cardiac function after MI. a, Impact of neutrophil depletion on ^mNPPFC incorporation into the bone marrow: For in vivo labeling of bone marrow neutrophils, ^mNPPFCs were injected intravenously and 24 h later the ^19F signal within the femur and tibia was determined (gray). […] The marrow mainly belongs to the diaphysis whereas the growth of the bones takes place at the inner and outer epiphysis. […]

murine neutrophils = experiment: Cell surface activation markers CD11b, CD62L, CD63 on murine blood neutrophils; assay type: in vivo, mouse; conditions: mNPPFCs 1 mM per kg BW i.v., blood 2 h later; LPS = LPS-doped Matrigel s.c. 24 h before (positive control); individual experiments, only first lines of sheet shown
Experimental: […] per kg BW ^mNPPFCs or saline were injected i.v., and, 2 h later, neutrophils were isolated from the blood and stained for CD11b, CD62L and CD63. As a positive control, mice were implanted with LPS-doped Matrigel 24 h before blood withdrawal.
A total of 1 × 10^6 isolated human neutrophils were incubated with 50 µl ml^−1 ^hNPPFCs, 1 µg ml^−1 LPS or only DMEM for 1 h at 37 °C followed by intense washing with MACS buffer. Afterward, 1 × 10^5 cells were transferred into 96-well plates and stained for CD11b and CD63 (eBioscience, clone HSC6) or CD66b (eBioscience, clone G10F5) for 20 min at 4 °C. After two washing steps with MACS buffer, cells were analyzed by flow cytometry. A total of 1 × 10^5 isolated murine neutrophils were transferred into a 96-well plate and stained for CD11b, CD62L and CD63 for 20 min at 4 °C. After two washing steps with MACS buffer, cells were analyzed by flow cytometry.
Extended Data Fig. 9 Impact of ^mNPPFCs on murine neutrophils. a, Differentially expressed genes (DEGs) identified by bulk RNA sequencing of murine blood neutrophils after intravenous injection of ^mNPPFCs, ^ConPFCs or NaCl (Ctrl) as control. […] In total 25655 RNA transcripts were analyzed. b, Cell surface expression of CD11b, CD62L, CD63 on blood derived murine neutrophils after intravenous application of NaCl (Ctrl) or ^mNPPFCs. As a positive control, matrigel doped with 50 µg LPS was subcutaneously implanted into the neck of mice and after 24 h, neutrophils were isolated from the blood and analyzed by flow cytometry. c, Impact of ^mNPPFC incubation on neutrophil migration, phagocytosis and release of reactive oxygen species (ROS). Migration was determined in vivo by assessment of the infiltration of neutrophils into a matrigel/LPS plug; phagocytosis was determined by intravenous injection of FITC-labelled E.coli into mice and the subsequent removal and flow cytometric analysis of blood neutrophils; extracellular ROS were measured within the cell supernatant of blood neutrophils by oxidation of DHE (dihydroethidium) followed by UPLC analysis. […]

Substance: mNPPFCs: PEGylated rhodamine-labeled perfluoro-15-crown-5 ether nanoemulsion (maleimide PFCs) coupled with murine neutrophil-specific peptide mNP (carboxyfluorescein-DFYKPMPNLRITGGGC([maleimide‑PEG2000‑DSPE-rhodamine‑labelled PEGylated perfluoro‑15‑crown‑5 ether nanoemulsion]); reading uncertain; also: printed as DFYKPMPNLRIT-GGG-C)
- 19F signal of bone marrow, Post (bone marrow neutrophils; 1H/19F MRI, after MI, panel B raw data, single animals): 384270 and 284234 and 342343 and 246818 and 294364 and 237217 and 352300
- 19F signal of bone marrow, Pre (bone marrow neutrophils; 1H/19F MRI, before MI, panel B raw data, single animals): 555612 and 765758 and 385254 and 440946 and 378880 and 354237 and 356979 and 487088 and 602276
- 19F signal within the femur and tibia (bone marrow) (bone marrow neutrophils; Ctrl (no depletion), 24 h after i.v. mNPPFC injection, individual experiments): 1.88E+06 and 1.21E+06 and 1.06E+06 and 1.73E+06
- change of bone marrow 19F signal 24 h after MI (bone marrow neutrophils; femur and tibia, daily i.v. injections over 3 d before MI): substantial reduction
- BM 19F signal post MI normalized to the 19F signals detected before induction of MI (bone marrow neutrophils; mNPPFC-labeled mice, Nabs = plus antibodies against CXCL1, CXCL2, G-CSF, GM-CSF i.p. 1 h before and 4 h post MI, individual experiments): 69.1617 and 64.46 and 69.676 and 82.4597 and 48.7011 and 58.4948 and 73.1944 and 76.1165
- cell surface expression of CD11b on blood derived murine neutrophils, flow cytometry (murine neutrophils): 2655 and 2691 and 3361 and 1842
- cell surface expression of CD62L on blood derived murine neutrophils, flow cytometry (murine neutrophils): 1971 and 1966 and 1558 and 2425
- cell surface expression of CD63 on blood derived murine neutrophils, flow cytometry (murine neutrophils): 135 and 126 and 105
